Experimental data as given in US20260209263A1, “UNNATURAL SUGAR, AND SYNTHESIS METHOD THEREFOR AND USE THEREOF” (HEFEI LINXCELL BIOTECHNOLOGIES CO., LTD, priority 2022, published 2026).

Legend:
[1] = tested on: B6D2F1/J mice; assay: Metabolic labeling in vivo in mice, in-gel fluorescence of organ homogenates; conditions: intraperitoneal, 500 mg/kg every day for 3 or 7 consecutive days; heart, lung, spleen
Description: In the in vivo mouse experiment, B6D2F1/J mice were intraperitoneally injected with 1,6-Pr2GalNAz or 1,6-Pr2ManNAz (both at a concentration of 500 mg/kg) every day for 3 or 7 consecutive days. The mice were euthanized on the 4th or 8th day, and different organs were selected for homogenization. The azide-modified glycoproteins were click-labeled and separated by SDS-PAGE.

[2] = tested on: HeLa cells; assay: Metabolic glycan labeling in living HeLa cells, Cy5 in-gel fluorescence; format: cell-based; conditions: for labeling efficiency compared with GalNAz or ManNAz: 200 μM of 1,6-bis-acylated sugar vs 2 mM of sugar without protecting groups; for labeling efficiency compared with 1,6-Pr2GalNAz or 1,6-Pr2ManNAz: 200 μM
Description: In order to verify the metabolic labeling effect of the above-mentioned 1,6-bis-acylated unnatural sugars in living cells, HeLa cells were metabolically labeled with the above-mentioned different compounds. The specific steps are as follows:
200 μM of 1,6-bis-acylated unnatural sugar and 2 mM of sugar without protecting groups were added to a culture medium of HeLa cells for culture, and then bioorthogonal reaction was carried out with Cy5 fluorescently labeled substances, and in-gel fluorescence detection was performed on the differently treated HeLa cells. The detection results are shown in FIGS. 2A-2C (CBB in FIGS. 3A-3D represents Coomassie Brilliant Blue staining to show the loading amount control).

[3] = tested on: MCF-7 (MCF7-T2A-GFP) cells; assay: Metabolic glycan labeling in MCF-7 cells expressing GFP; format: cell-based
From the text: (§1) The above data well illustrate that 1,6-bis-acylated azidosugars can be metabolically labeled at much lower concentrations than unprotected azidosugars.

[4] = tested on: MCF7-AGX2F383G-T2A-GFP cells; assay: Metabolic glycan labeling in MCF-7 cells overexpressing mutant enzyme AGX2F383G; format: cell-based
From the text: as §1

Row | SMILES | in vivo metabolic labeling of glycoproteins from organs [1] | labeling efficiency compared with GalNAz or ManNAz [2] | labeling efficiency compared with 1,6-Pr2GalNAz or 1,6-Pr2ManNAz [2] | also measured
1 | CCC(=O)OC[C@H]1OC(OC(=O)CC)[C@H](NC(=O)CN=[N+]=[N-])[C@@H](O)[C@H]1O (some centres unmarked) [1,6-Pr2GalNAz] | glycoproteins from the heart, lung, and spleen could be well labeled | close to or slightly stronger than 2 mM of sugar without protecting groups |  | 
2 | CCC(=O)OCC1OC(OC(=O)CC)C(NC(=O)CN=[N+]=[N-])C(O)C1O (centres unmarked) [1,6-Pr2ManNAz] | glycoproteins from the heart, lung, and spleen could be well labeled | close to or slightly stronger than 2 mM of sugar without protecting groups |  | 
3 | CCCC(=O)OCC1OC(OC(=O)CCC)C(NC(=O)CN=[N+]=[N-])C(O)C1O (centres unmarked) [1,6-Bu2GalNAz] |  |  | comparable | 
4 | CC(=O)OCC1OC(OC(C)=O)C(NC(=O)CN=[N+]=[N-])C(O)C1O (centres unmarked) [1,6-Ac2GalNAz] |  |  | much lower | 
5 | [N-]=[N+]=NCC(=O)N[C@H]1C(O)O[C@H](CO)[C@@H](O)[C@@H]1O (some centres unmarked) [GlcNAz] |  |  |  | metabolic labeling [3]: neither GlcNAz nor 1,6-bis-acylated GlcNAz treatment resulted in obvious labeling; metabolic labeling [4]: produced obvious labeling
